From article PMC10969960, “Novel Anthraquinone-Based Benzenesulfonamide Derivatives and Their Analogues as Potent Human Carbonic Anhydrase Inhibitors with Antitumor Activity: Synthesis, Biological Evaluation, and In Silico Analysis” (International Journal of Molecular Sciences, 2024) come the findings set out here.

One series has as its target T1, hCA II (Homo sapiens, UniProt P00918).
T1 construct: purchased Shanghai Jining Biological
As to the kind of experiment: CA inhibition assay, 4-nitrophenyl acetate (4-NPA) esterase assay. To be noted: errors ±5–10% of the reported values. The class given is biochemical.

In a further series the target is T2, hCA IX (Homo sapiens, UniProt Q16790).
T2 construct: purchased Shanghai Jining Biological
The series is described as above. The class given is biochemical. Conditions: errors ±5–10% of the reported values.

A further series relates to HepG2 cancer cells. As to the kind of experiment: MTT anti-proliferative assay. The format is cell-based. To be noted: Homo sapiens, 24 h. In general terms: Formazan colour is commonly taken as a measure of viable cells.
A further series deals with MCF-7 cancer cells. Description: MTT anti-proliferative assay. The format is cell-based. Conditions: Homo sapiens, MCF7, 24 h.
Another series has as its system MDA-MB-231 cancer cells. As to the kind of experiment: MTT anti-proliferative assay. Conditions: Homo sapiens, 24 h. The format is cell-based.
Where [1] appears, read: hypoxic (0.5% O2), read-out: IC50 HepG2 Hypo.
The mark [2] stands for this setting: normoxic, read-out: IC50 HepG2 Normo.
Where [3] appears, read: hypoxic (0.5% O2), read-out: IC50 MCF-7 Hypo.
[4] abbreviates: normoxic, read-out: IC50 MCF-7 Normo.
The mark [5] stands for this setting: hypoxic (0.5% O2), read-out: IC50 MDA-MB-231 Hypo.
Setting [6] is: normoxic, read-out: IC50 MDA-MB-231 Normo.

Like-named read-outs stand apart in the source and are kept apart here.

Description for HepG2 cancer cells: (§1) The median growth-inhibitory concentration (IC50) in the treated cells was compared to that of untreated controls. Cells were cultured under normoxic and hypoxic conditions to evaluate the effects of the compounds on cancer cell viability.
(§2) The cell cultures were passaged once every 2–3 days.
(§3) The 3-(4,5-dimethylthiazol-2-yl)-2,5-diphenyltetrazolium bromide (MTT) assay was used to measure the cell viability. Cells were planted into 96-well plates (4 × 10^3 cells per well) and cultured in media containing different concentrations of compounds. […] The supernatant was then discarded, and 150 μL of DMSO was added to each well, followed by gentle shaking. The absorbance value at 570 nm was measured using an EL808 microplate reader (Bio-TEK Instrument, Winooski, VT, USA).
Description for MCF-7 cancer cells: as §1, §2, §3
Description for MDA-MB-231 cancer cells: as §1, §2, §3
Description for hCA II: (§4) The inhibitory activity was evaluated by monitoring the hydrolysis of 4-nitrophenylacetate (4-NPA.).
(§5) Therefore, according to the method described by Verpoorte previously [32], 4-NPA was catalyzed into 4-nitrophenol for the determination of CA activity.
(§6) The substrate (4-NPA) was dissolved in DMSO at a substrate concentration of 1 mM. Standard hCAs II and IX (acquired from Shanghai Jining Biological) were diluted to the indicated concentrations with assay buffer and added to the cells. Different concentrations of inhibitors were added to the cells, followed by incubation at room temperature for 15 min to form complexes of inhibitors and enzymes (E-I). Then, 100 μL of E-I complex and 900 μL of substrate were successively added to a 1 mL glass cuvette and mixed immediately. […] At the same time, the non-enzymatic hydrolysis rate was determined by a blank control test. Standard hCAs II and IX were diluted to final concentrations of 1.5 ng/μL and 5 ng/μL, respectively [26, 35]. The FORECAST (x, known-y’s, known-x’s) command of Excel was used to return a predicted value through the linear regression equation to calculate the IC50 values. The experiments were repeated three times for each inhibitor concentration.
Description for hCA IX: as §4, §5, §6

In the case of `O=C(O)c1ccc(NC(=O)c2ccc3c(c2)C(=O)c2ccccc2C3=O)cc1` [Compound 6a, 4-(9,10-Dioxo-9,10-Dihydroanthracene-2-Carboxamido)Benzoic Acid], the melting point is 338 to 338.5 °C. Besides, the half-maximal inhibitory concentration (IC50) on hCA II was 296 nM. This molecule showed an IC50 at hCA IX of 194 nM.
Turning to `CC(=O)NS(=O)(=O)c1ccc(NC(=O)c2ccc3c(c2)C(=O)c2ccccc2C3=O)cc1` [Compound 6k, N-(4-(N-Acetylsulfamoyl)Phenyl)-9,10-Dioxo-9,10-Dihydroanthracene-2-Carboxamide], the melting point lay within 304 to 304.3 °C. This molecule displayed an IC50 against hCA II of 170 nM. At hCA IX, this molecule gave a concentration for half-maximal inhibition (IC50) of 140 nM.
The molecule `CNS(=O)(=O)c1ccc(NC(=S)NC(=O)c2ccc3c(c2)C(=O)c2ccccc2C3=O)cc1` [Compound 5i, ((4-(N-Methylsulfamoyl)Phenyl)Carbamothioyl)-9,10-Anthraquinone-2-Carboxamide] came in with a melting point of 207 to 207.6 °C. On hCA II, this molecule registered an IC50 of 76.7 nM. Half-maximal inhibition against hCA IX (IC50) was put at 100 nM.
`CNS(=O)(=O)c1ccc(NC(=O)c2ccc3c(c2)C(=O)c2ccccc2C3=O)cc1` [Compound 6i, N-(4-(N-Methylsulfamoyl)Phenyl)-9,10-Dioxo-9,10-Dihydroanthracene-2-Carboxamide] had a melting point of 273 to 273.8 °C. Further, on hCA II, inhibition was half-maximal at 172 nM (IC50). Besides, the midpoint of inhibition at hCA IX, the IC50, lay at 110 nM.
With `NS(=O)(=O)c1cccc(NC(=O)c2ccc3c(c2)C(=O)c2ccccc2C3=O)c1` [Compound 6d, 9,10-Dioxo-N-(3-Sulfamoylphenyl)-9,10-Dihydroanthracene-2-Carboxamide], the melting point was 283 to 283.2 °C. This molecule showed an IC50 against hCA II of 91.2 nM. At hCA IX, this molecule came in with an IC50 of 55.9 nM.
The molecule `COC(=O)c1cccc(NC(=S)NC(=O)c2ccc3c(c2)C(=O)c2ccccc2C3=O)c1` [Compound 5g, Methyl 3-(3-(9,10-Dioxo-9,10-Dihydroanthracene-2-Carbonyl)Thioureido)Benzoate] had a melting point of 187 to 187.3 °C. The same molecule registered an IC50 against hCA II of 238 nM. This molecule had an IC50 at hCA IX of 251 nM.
`NS(=O)(=O)c1ccc(CCNC(=S)NC(=O)c2ccc3c(c2)C(=O)c2ccccc2C3=O)cc1` [Compound 5h, 9,10-Mioxo-N-((4-Sulfamoylphenethyl)Carbamothioyl)-9,10-Dihydroanthracene-2-Carboxamide] registered a melting point of 323 to 323.5 °C. This molecule also gave an IC50 against hCA II of 21.2 nM. Also, the IC50 with HepG2 cancer cells (setting [1]) worked out at 80400 ± 7140 nM. Besides, the IC50 in the series with HepG2 cancer cells (setting [2]) amounted to 81400 ± 7030 nM. Moreover, the IC50 with MCF-7 cancer cells (setting [3]) turned out to be 57400 ± 5500 nM. Also, the IC50 in the series on MCF-7 cancer cells (setting [4]) was determined as 63800 ± 5570 nM. At hCA IX, this molecule came in with an IC50 of 46.2 nM. Also, the IC50 in the series on MDA-MB-231 cancer cells (setting [5]) stood at 81200 ± 7340 nM. Also, the IC50 in the series on MDA-MB-231 cancer cells (setting [6]) turned out to be 75200 ± 6810 nM.
With `N=C(N)NS(=O)(=O)c1ccc(NC(=S)NC(=O)c2ccc3c(c2)C(=O)c2ccccc2C3=O)cc1` [Compound 5n, ((4-(N-Carbamimidoylsulfamoyl)Phenyl)Carbamothioyl)-9,10-Dioxo-9,10-Dihydroanthracene-2-Carboxamide], the melting point lay in the range of 206 to 206.5 °C. The same molecule registered an IC50 at hCA II of 98.4 nM. This molecule showed an IC50 against hCA IX of 103 nM.
Molecule `O=C(O)c1cccc(NC(=O)c2ccc3c(c2)C(=O)c2ccccc2C3=O)c1` [Compound 6b, (9,10-Dioxo-9,10-Dihydroanthracene-2-Carboxamido)Benzoic Acid] showed a melting point of 274 to 274.6 °C. In addition, it took 274 nM to reach half-maximal inhibition against hCA II (IC50). Besides, on hCA IX, 166 nM corresponded to half-maximal inhibition (IC50).
`NS(=O)(=O)c1ccc(CCNC(=O)c2ccc3c(c2)C(=O)c2ccccc2C3=O)cc1` [Compound 6h, 9,10-Dioxo-N-(4-Sulfamoylphenethyl)-9,10-Dihydroanthracene-2-Carboxamide]: the IC50 at hCA II was found to be 61.8 nM; with HepG2 cancer cells (setting [1]), 54300 ± 5150 nM; in the series on HepG2 cancer cells (setting [2]), 58200 ± 5450 nM; with MCF-7 cancer cells (setting [3]) it was 30300 ± 3140 nM; in the series on MCF-7 cancer cells (setting [4]), 41400 ± 2220 nM; at hCA IX, 30.1 nM. For the same molecule, the figures for the IC50 in the series with MDA-MB-231 cancer cells (setting [5]) and with MDA-MB-231 cancer cells (setting [6]) were 50400 ± 4270 nM and 54200 ± 4870 nM, respectively.
With `CC(=O)c1ccc(NC(=S)NC(=O)c2ccc3c(c2)C(=O)c2ccccc2C3=O)cc1` [Compound 5e, ((4-Acetylphenyl)Carbamothioyl)-9,10-Dioxo-9,10-Dihydroanthracene-2-Carboxamide], the melting point lay within 215 to 215.9 °C. Further, at hCA II, the IC50 stood at 132 nM. The molecule further gave an IC50 against hCA IX of 275 nM.
With `O=C(O)c1cccc(NC(=S)NC(=O)c2ccc3c(c2)C(=O)c2ccccc2C3=O)c1` [Compound 5b, 3-(3-(9,10-Dioxo-9,10-Dihydroanthracene-2-Carbonyl) Thioureido) Benzoic Acid], the results for the IC50 on hCA II and against hCA IX were 135 nM and 254 nM, respectively.
For `COC(=O)c1ccc(NC(=S)NC(=O)c2ccc3c(c2)C(=O)c2ccccc2C3=O)cc1` [Compound 5f, Methyl 4-(3-(9,10-Dioxo-9,10-Dihydroanthracene-2-Carbonyl)Thioureido)Benzoate], the melting point lay in the range of 211 to 211.4 °C. The IC50 against hCA II came to 147 nM. On hCA IX, this molecule came in with an IC50 of 190 nM.
`O=C(NC(=S)Nc1ccc(S(=O)(=O)Nc2ncccn2)cc1)c1ccc2c(c1)C(=O)c1ccccc1C2=O` [Compound 5j]: the melting point fell in the range of 237 to 237.2 °C. Also, 87.7 nM corresponded to half-maximal inhibition on hCA II (IC50). The same molecule registered an IC50 at hCA IX of 77.7 nM.
As for `CC(=O)NS(=O)(=O)c1ccc(NC(=S)NC(=O)c2ccc3c(c2)C(=O)c2ccccc2C3=O)cc1` [Compound 5k, ((4-(N-Acetylsulfamoyl)Phenyl)Carbamothioyl)-9,10-Dioxo-9,10-Dihydroanthracene-2-Carboxamide], the melting point lay within 192 to 192.4 °C. Further, the IC50 against hCA II is 156 nM. On hCA IX, 227 nM corresponded to half-maximal inhibition (IC50).
The corresponding values for `NS(=O)(=O)c1cccc(NC(=S)NC(=O)c2ccc3c(c2)C(=O)c2ccccc2C3=O)c1` [Compound 5d, 9,10-Dioxo-N-((3-Sulfamoylphenyl)Carbamothioyl)-9,10-Dihydroanthracene-2-Carboxamide] are 146.5 to 146.8 °C, 64.3 nM and 73.6 nM.
Take `CC(=O)c1ccc(NC(=O)c2ccc3c(c2)C(=O)c2ccccc2C3=O)cc1` [Compound 6e, N-(4-Acetylphenyl)-9,10-Dioxo-9,10-Dihydroanthracene-2-Carboxamide]: the melting point was 266 to 266.5 °C. This molecule also came in with an IC50 against hCA IX of 168 nM.
On to `O=C(O)c1ccc(NC(=S)NC(=O)c2ccc3c(c2)C(=O)c2ccccc2C3=O)cc1` [Compound 5a, (3-(9,10-Dioxo-9,10-Dihydroanthracene-2-Carbonyl) Thioureido) Benzoic Acid], for which the melting point fell in the range of 221 to 221.4 °C. The molecule also came in with an IC50 against hCA II of 113 nM. Further, on hCA IX, the midpoint of inhibition, the IC50, lay at 217 nM.
In the case of `NS(=O)(=O)c1ccc(NC(=O)c2ccc3c(c2)C(=O)c2ccccc2C3=O)cc1` [Compound 6c, 9,10-Dioxo-N-(4-Sulfamoylphenyl)-9,10-Dihydroanthracene-2-Carboxamide], the melting point is 341 to 341.3 °C. On hCA II, this molecule showed an IC50 of 68.3 nM. The IC50 with HepG2 cancer cells (setting [1]) was found to be 62800 ± 5520 nM. The IC50 with HepG2 cancer cells (setting [2]) came out at 68800 ± 4170 nM. Also, the IC50 in the series on MCF-7 cancer cells (setting [3]) was found to be 47000 ± 4010 nM. For the same molecule, the IC50 with MCF-7 cancer cells (setting [4]) came to 50400 ± 4730 nM. For the same molecule, on hCA IX, the IC50 was found to be 34.9 nM. Besides, the IC50 with MDA-MB-231 cancer cells (setting [5]) amounted to 61600 ± 5130 nM. Also, the IC50 with MDA-MB-231 cancer cells (setting [6]) is 56300 ± 4190 nM.
With `O=C(NC(=S)Nc1ccc(S(=O)(=O)Nc2nccs2)cc1)c1ccc2c(c1)C(=O)c1ccccc1C2=O` [Compound 5m, 9,10-Dioxo-N-((4-(N-(Thiazol-2-yl)Sulfamoyl)Phenyl)Carbamothioyl)-9,10-Dihydroanthracene-2-Carboxamide], the concentration for half-maximal inhibition (IC50) amounted to 95.9 nM on hCA II and 71 nM against hCA IX.

In general, IC50 refers to the concentration at which inhibition is half-maximal. The melting point is the temperature, or range, at which the solid turns liquid.
